Results reported in US20120309676A1, “Lantibiotic Salts” (priority 2010, published 2012).
Counter-ions that a name gives are not always drawn.

Tests used:
[1] = Aqueous solubility; format: physicochemical; conditions: for pH of saturated solution: aqueous saturated solution
From the text: Solubility as employed herein is used generically to refer to a distribution of a compound of formula (I) in a solvent (for example water, saline or an aqueous isotonic solution such as glucose) such that the formulation/composition resulting therefrom is substantially free of visible aggregates and for example is substantially transparent when viewed by the naked eye. Such a formulation would therefore include a whole range of formats which are suitable for infusion and/or injection such as solutions, suspensions, colloids and the like. […]

[2] = In vivo plasma half-life in mice; conditions: male, mouse, 29.76 mg/kg; CD-1 mice, IV dose of Example 1 (9.3 mL/Kg of 3.2 mg/mL solution); Compound 1 in plasma by LC-MS
Procedure: The in vivo half-life of Compound 1 in mice was determined by measurement of its plasma concentrations at various time points following IV dosing. 18 male CD-1 mice aged 7-9 weeks were dosed IV with a 9.3 mL/Kg dose of a 3.2 mg/mL solution of Example 1 in 15% hydroxypropyl-β-cyclodextrin/4.4% glucose/1 mM potassium phosphate (pH=7.6). Plasma samples were obtained at 10, 20, 30, 60, 120 and 240 min post-dose, sampling from 3 animals at each time point. Concentrations of Compound 1 in plasma were determined by LC-MS quantification.

[3] = tested on: Methicillin Resistant Staphylococcus aureus (MRSA, ATCC 33591); experiment: Neutropaenic mouse thigh infection model; format: in vivo
Procedure: In vivo efficacy of compounds of the present invention in the treatment of bacterial tissue infections was evaluated using a neutropaenic mouse thigh model.
Groups of 6 male ICR mice weighing 24±2 g were used. Test animals were immunosuppressed by 2 intraperitoneal injections of cyclophosphamide, the first at 150 mg/Kg 4 days before infection (day-4) and the second at 100 mg/Kg 1 day before infection (day-1). On day 0, individual animals were inoculated intramuscularly (IM) into the right thigh of test animals with 1.15×10^8 CFU/mouse of Methicillin Resistant Staphylococcus aureus (MRSA, ATCC 33591) suspended in 100 μL of sterile PBS, pH 7.4. Vehicle and test substances were administered intravenously (IV) at a dose volume of 6 mL/Kg, 2 and 14 hours after thigh infection. Example 1 and vancomycin were dissolved in 15% hydroxypropyl-β-cyclodextrin/4.4% glucose/1.5 mM potassium phosphate buffer, pH 7.0 and administered at doses of 5, 10, 20, 30 and 40 mg/Kg. At 26 hours after inoculation, muscle of the right thigh of each test mouse was harvested. From an additional group with no treatment, muscle of the right thigh was harvested at 2 hours after inoculation for the basal CFU determination. The removed muscle tissues were then homogenized in 3-4 mL of PBS, pH 7.4 with a ceramic mortar. Homogenates of 0.1 mL were used for serial 10-fold dilutions and plated on Mueller Hinton broth in 1.5% Bacto agar for CFU determination. […] Results (mean cfu/g) are graphically represented in FIG. 2.

[4] = tested on: Staphylococcus aureus methicillin resistant ATCC 33591; experiment: Mouse bacteraemia model, SC dosing; format: in vivo
Procedure: Groups of 6 male CD-1 (Crl.) derived mice weighing 24±2 g were used. Mice were inoculated intraperitoneally (IP) with an LD90-100 of Staphylococcus aureus methicillin resistant ATCC 33591 (1.1×10^7 CFU/mouse) in 0.5 mL of BHI broth containing 5% mucin. Example 1 and vancomycin were dissolved in 15% HPbetaCD/4.4% glucose/0.5 mM KH2PO4, pH 5.0 and doses of 1, 3, 5, 10 and 20 mg/Kg were administered subcutaneously (SC) to test animals at 0, 2 and 24 hour(s) after bacteria challenge. The dosing volume was 5 mL/Kg. Mortality was recorded once daily for 7 days (FIG. 1). The ED50 for each compound was determined by nonlinear regression.

[5] = tested on: Methicillin Resistant Staphylococcus aureus (MRSA, ATCC 33591); experiment: Neutropaenic mouse thigh infection model, further experiment; format: in vivo; conditions: IV 2 and 14 h after infection, 2.5-50 mg/Kg, FIG. 3
Procedure: In a further experiment, groups of 6 male ICR mice weighing 24±2 g were used. Test animals were immunosuppressed by 2 intraperitoneal injections of cyclophosphamide, the first at 150 mg/Kg 4 days before infection (day-4) and the second at 100 mg/Kg 1 day before infection (day-1). On day 0, individual animals were inoculated intramuscularly (IM) into the right thigh of test animals with 1.5×10^5 CFU/mouse of Methicillin Resistant Staphylococcus aureus (MRSA, ATCC 33591) suspended in 100 μL of sterile PBS, pH 7.4. Vehicle and test substances were administered intravenously (IV) at a dose volume of 8 mL/Kg, 2 and 14 hours after thigh infection. Example 1 was dissolved in 5% dextrose/1 mM potassium phosphate, pH 5.0 and administered at doses of 2.5, 5, 10, 15, 25 and 50 mg/Kg. At 26 hours after inoculation, muscle of the right thigh of each test mouse was harvested. From an additional group with no treatment, muscle of the right thigh was harvested at 2 hours after inoculation for the basal CFU determination. The removed muscle tissues were then homogenized in 3-4 mL of PBS, pH 7.4 with a ceramic mortar. Homogenates of 0.1 mL were used for serial 10-fold dilutions and plated on Mueller Hinton broth in 1.5% Bacto agar for CFU determination.

[6] = tested on: Staphylococcus aureus methicillin resistant ATCC 33591; experiment: Mouse bacteraemia model, second experiment, IV dosing; format: in vivo; conditions: for number of deaths: after 7 days, groups of 6 mice
Procedure: In a second experiment Groups of 6 male CD-1 (Crl.) derived mice weighing 24±2 g were used. Mice were inoculated intraperitoneally (IP) with an LD90-100 of Staphylococcus aureus methicillin resistant ATCC 33591 (1.35×10^8 CFU/mouse) in 0.5 mL of BHI broth containing 5% mucin. Example 1 was dissolved in 5% dextrose/1.5 mM potassium phosphate, pH 5.0 and doses of 1, 3, 5 and 10 mg/Kg were administered intravenously (IV) to test animals at 1 and 13 hour(s) after bacteria challenge. The dosing volume was 5 mL/Kg. Mortality was recorded once daily for 7 days.

[7] = aqueous, * = calculations made from two determinations

For `CC[C@H](C)[C@@H]1NC(=O)[C@@H]2NC(=O)[C@H](CC(C)C)NC(=O)[C@H](NC(=O)[C@@H]3CSC[C@@H](N)C(=O)N[C@@H](CO)C(=O)NCC(=O)N[C@@H](Cc4c[nH]c5ccccc45)C(=O)N[C@@H](C(C)C)C(=O)N3)[C@H](C)SC[C@H](NC(=O)[C@H](CCC(=O)O)NC1=O)C(=O)NCC(=O)N[C@H]1C(=O)N[C@@H](CC(C)C)C(=O)N[C@@H](C(C)C)C(=O)N[C@@H](CS[C@H]2C)C(=O)N[C@@H](C)C(=O)N[C@H](C(=O)NCc2cc(Cl)cc(Cl)c2)CS[C@H]1C` [diethanolamine salt], the “pH of saturated solution” value [1] was 8.78, the Solubility [1, 7] was 6.94* mg/mL and the Solubility ([1]; salts of compound 1, listed as diethanolamine salt of compound 1) was “more than 5 mg/mL”.

With `CC[C@H](C)[C@@H]1NC(=O)[C@@H]2NC(=O)[C@H](CC(C)C)NC(=O)[C@H](NC(=O)[C@@H]3CSC[C@@H](N)C(=O)N[C@@H](CO)C(=O)NCC(=O)N[C@@H](Cc4c[nH]c5ccccc45)C(=O)N[C@@H](C(C)C)C(=O)N3)[C@H](C)SC[C@H](NC(=O)[C@H](CCC(=O)O)NC1=O)C(=O)NCC(=O)N[C@H]1C(=O)N[C@@H](CC(C)C)C(=O)N[C@@H](C(C)C)C(=O)N[C@@H](CS[C@H]2C)C(=O)N[C@@H](C)C(=O)N[C@H](C(=O)NCc2cc(Cl)cc(Cl)c2)CS[C@H]1C` [tromethamine salt] the “pH of saturated solution” value [1] was 8.53 and the Solubility [1, 7] was 2.38 mg/mL.

With `CC[C@H](C)[C@@H]1NC(=O)[C@@H]2NC(=O)[C@H](CC(C)C)NC(=O)[C@H](NC(=O)[C@@H]3CSC[C@@H](N)C(=O)N[C@@H](CO)C(=O)NCC(=O)N[C@@H](Cc4c[nH]c5ccccc45)C(=O)N[C@@H](C(C)C)C(=O)N3)[C@H](C)SC[C@H](NC(=O)[C@H](CCC(=O)O)NC1=O)C(=O)NCC(=O)N[C@H]1C(=O)N[C@@H](CC(C)C)C(=O)N[C@@H](C(C)C)C(=O)N[C@@H](CS[C@H]2C)C(=O)N[C@@H](C)C(=O)N[C@H](C(=O)NCc2cc(Cl)cc(Cl)c2)CS[C@H]1C` [N-ethyl-D-glucamine salt] the “pH of saturated solution” value [1] was 8.43, the Solubility [1, 7] was 11.16* mg/mL and the Solubility ([1]; salts of compound 1, listed as N-ethyl glucamine salt of compound 1) was “more than 10 mg/mL”.

In the case of `CCC(C)[C@@H]1NC(=O)[C@@H]2NC(=O)[C@H](CC(C)C)NC(=O)[C@H](NC(=O)[C@H]3CSC[C@H](N)C(=O)N[C@@H](CO)C(=O)NCC(=O)N[C@@H](Cc4c[nH]c5ccccc45)C(=O)N[C@@H](C(C)C)C(=O)N3)[C@H](C)SC[C@H](NC(=O)[C@H](CCC(=O)O)NC1=O)C(=O)NCC(=O)N[C@@H]1C(=O)N[C@@H](CC(C)C)C(=O)N[C@@H](C(C)C)C(=O)N[C@@H](CS[C@H]2C)C(=O)N[C@@H](C)C(=O)N[C@H](C(=O)NCc2cc(Cl)cc(Cl)c2)CS[C@H]1C` (stereo partly drawn) [Compound 1, Deoxyactagardine B (3,5-dichlorobenzylamine) monocarboxamide], the half-life [2] is reported as roughly 2 h.

For `CN[C@H](CC(C)C)C(=O)N[C@H]1C(=O)N[C@@H](CC(N)=O)C(=O)N[C@H]2C(=O)N[C@H]3C(=O)N[C@H](C(=O)N[C@H](C(=O)O)c4cc(O)cc(O)c4-c4cc3ccc4O)[C@H](O)c3ccc(c(Cl)c3)Oc3cc2cc(c3O[C@@H]2O[C@H](CO)[C@@H](O)[C@H](O)[C@H]2O[C@H]2C[C@](C)(N)[C@H](O)[C@H](C)O2)Oc2ccc(cc2Cl)[C@H]1O` [vancomycin, reference compound], the antimicrobial effect ([3]; IV at 5, 10, 20, 30 and 40 mg/Kg×2, 2 and 14 h after thigh infection, harvest at 26 h) was “significant antimicrobial effect”, the “reductions of CFU/g” value ([3]; at 30 mg/kg and above, IV ×2, thigh muscle at 26 h) was greater than 100 fold and the “antimicrobial effect against S. aureus (MRSA) in mice” value ([4]; 3, 5, 10 and 20 mg/Kg×3, SC) was “significant antimicrobial effect”. For the same compound, the ED50 ([4]; Staphylococcus aureus, ATCC33591, CD-1 mice, SC at 0, 2 and 24 h after challenge, mortality over 7 days, nonlinear regression, read-out: estimated ED50) was 3 mg/kg, the “bacterial counts in the thigh tissue” value [5] was “dose dependent reduction” and the number of deaths ([6]; 1 mg/kg IV at 1 and 13 h after challenge) was 5. The number of deaths ([6]; 3 mg/kg IV at 1 and 13 h after challenge) was 3, the number of deaths ([6]; 5 mg/kg IV at 1 and 13 h after challenge) was 1 and the number of deaths ([6]; 10 mg/kg IV at 1 and 13 h after challenge) was 0. For the same compound, the “survival of mice after 7 days” value ([6]; 1, 3, 5 and 10 mg/kg) was “dose-dependent incease in survival”.

In the case of `CC[C@H](C)[C@@H]1NC(=O)[C@@H]2NC(=O)[C@H](CC(C)C)NC(=O)[C@H](NC(=O)[C@@H]3CSC[C@@H](N)C(=O)N[C@@H](CO)C(=O)NCC(=O)N[C@@H](Cc4c[nH]c5ccccc45)C(=O)N[C@@H](C(C)C)C(=O)N3)[C@H](C)SC[C@H](NC(=O)[C@H](CCC(=O)O)NC1=O)C(=O)NCC(=O)N[C@H]1C(=O)N[C@@H](CC(C)C)C(=O)N[C@@H](C(C)C)C(=O)N[C@@H](CS[C@H]2C)C(=O)N[C@@H](C)C(=O)N[C@H](C(=O)NCc2cc(Cl)cc(Cl)c2)CS[C@H]1C` [ethanolamine salt], the “pH of saturated solution” value [1] is reported as 8.74, the Solubility [1, 7] is reported as 10.5* mg/mL and the Solubility ([1]; salts of compound 1, listed as ethanolamine salt of compound 1) is reported as “more than 10 mg/mL”.

In the case of `CC[C@H](C)[C@@H]1NC(=O)[C@@H]2NC(=O)[C@H](CC(C)C)NC(=O)[C@H](NC(=O)[C@@H]3CSC[C@@H](N)C(=O)N[C@@H](CO)C(=O)NCC(=O)N[C@@H](Cc4c[nH]c5ccccc45)C(=O)N[C@@H](C(C)C)C(=O)N3)[C@H](C)SC[C@H](NC(=O)[C@H](CCC(=O)O)NC1=O)C(=O)NCC(=O)N[C@H]1C(=O)N[C@@H](CC(C)C)C(=O)N[C@@H](C(C)C)C(=O)N[C@@H](CS[C@H]2C)C(=O)N[C@@H](C)C(=O)N[C@H](C(=O)NCc2cc(Cl)cc(Cl)c2)CS[C@H]1C` [triethanolamine salt], the “pH of saturated solution” value [1] is reported as 8.43 and the Solubility [1, 7] is reported as 1.04 mg/mL.
